Article PMC8655237 (Journal of Advanced Research, 2021)
Where a SMILES comes first, the peptide text is derived from it. [ ]: non-standard residue; d: D form. The star is where a group is joined. Sta = CC(C)C[C@H](N)[C@@H](O)CC(=O)O; Isovaleryl = CC(C)CC(=O)*

What was measured:
[1] = system: Ehrlich Ascites Carcinoma (EAC); experiment: Ehrlich ascites carcinoma; format: in vivo, Swiss albino mice; conditions: 20 mg/kg bw i.p., day 1-9
[2] = system: Ornithine decarboxylase (ODC); experiment: ODC assay, cell-free; format: biochemical; conditions: read-out: IC50 ODC; cell free (In vitro)
[3] = system: ODC mRNA; experiment: Real-time qPCR expression analysis; format: cell-based, human; conditions: GAPDH internal control
[4] = system: A431; experiment: MTT antiproliferative assay; format: cell-based; conditions: Homo sapiens, A-431, 24 h, read-out: IC50 (MTT)
[5] = system: MDA-MB-231; experiment: SRB antiproliferative assay; format: cell-based; conditions: Homo sapiens, MDA-MB-231, 24 h, read-out: IC50 (SRB)
[6] = system: A431; experiment: NRU antiproliferative assay; format: cell-based; conditions: Homo sapiens, A-431, 24 h, read-out: IC50 (NRU)
[7] = system: PC-3; experiment: NRU antiproliferative assay; format: cell-based; conditions: Homo sapiens, PC-3, 24 h, read-out: IC50 (NRU)
[8] = system: PC-3; experiment: SRB antiproliferative assay; format: cell-based; conditions: Homo sapiens, PC-3, 24 h, read-out: IC50 (SRB)
[9] = system: MDA-MB-231; experiment: MTT antiproliferative assay; format: cell-based; conditions: Homo sapiens, MDA-MB-231, 24 h, read-out: IC50 (MTT)
[10] = system: A431 cells; experiment: DCFH-DA ROS assay; format: cell-based, human; conditions: A431, flow cytometry, 1 µM
[11] = system: A431; experiment: SRB antiproliferative assay; format: cell-based; conditions: Homo sapiens, A-431, 24 h, read-out: IC50 (SRB)
[12] = system: MDA-MB-231; experiment: NRU antiproliferative assay; format: cell-based; conditions: Homo sapiens, MDA-MB-231, 24 h, read-out: IC50 (NRU)
[13] = system: A431 cells; experiment: Mitochondrial membrane potential; format: cell-based, human; conditions: A431, flow cytometry, 1 µM
[14] = system: PC-3; experiment: MTT antiproliferative assay; format: cell-based; conditions: Homo sapiens, PC-3, 24 h, read-out: IC50 (MTT)
[15] = system: DHFR mRNA; experiment: Real-time qPCR expression analysis; format: cell-based, human; conditions: GAPDH internal control
[16] = system: hyaluronidase (HYAL); experiment: Hyaluronidase assay, cell-free; format: biochemical; conditions: read-out: IC50 HYAL; cell free (In vitro)
[17] = system: hyaluronidase (HYAL); experiment: Hyaluronidase assay, cell-based; set-up: species or system human
[18] = system: HYAL mRNA; experiment: Real-time qPCR expression analysis; format: cell-based, human; conditions: GAPDH internal control
[19] = system: CAT D mRNA; experiment: Real-time qPCR expression analysis; format: cell-based, human; conditions: GAPDH internal control
[20] = system: K562; experiment: MTT antiproliferative assay; format: cell-based; conditions: Homo sapiens, K562, 24 h, read-out: IC50 (MTT)
[21] = system: FaDu; experiment: SRB antiproliferative assay; format: cell-based; conditions: Homo sapiens, 24 h, read-out: IC50 (SRB)
[22] = system: K562; experiment: NRU antiproliferative assay; format: cell-based; conditions: Homo sapiens, K562, 24 h, read-out: IC50 (NRU)
[23] = system: FaDu; experiment: NRU antiproliferative assay; format: cell-based; conditions: Homo sapiens, 24 h, read-out: IC50 (NRU)
[24] = molecular target: tubulin protein (Sus scrofa, UniProt P02550+P02554); experiment: Tubulin polymerization assay; format: biochemical; conditions: 10 μM
Chain of tubulin protein (P02550 whole entry): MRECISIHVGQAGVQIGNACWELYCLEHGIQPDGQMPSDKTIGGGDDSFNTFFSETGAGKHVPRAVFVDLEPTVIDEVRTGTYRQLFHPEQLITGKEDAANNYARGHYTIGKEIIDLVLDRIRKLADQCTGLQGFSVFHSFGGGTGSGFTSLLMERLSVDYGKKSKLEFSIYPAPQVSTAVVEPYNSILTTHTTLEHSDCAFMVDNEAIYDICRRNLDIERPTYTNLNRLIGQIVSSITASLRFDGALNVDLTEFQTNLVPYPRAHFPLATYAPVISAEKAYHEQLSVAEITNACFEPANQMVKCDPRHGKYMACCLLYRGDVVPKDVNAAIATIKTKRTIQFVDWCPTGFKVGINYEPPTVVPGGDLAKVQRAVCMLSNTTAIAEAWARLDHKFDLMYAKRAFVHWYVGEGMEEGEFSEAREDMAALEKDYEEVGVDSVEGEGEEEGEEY
Chain of tubulin protein (P02554 whole entry): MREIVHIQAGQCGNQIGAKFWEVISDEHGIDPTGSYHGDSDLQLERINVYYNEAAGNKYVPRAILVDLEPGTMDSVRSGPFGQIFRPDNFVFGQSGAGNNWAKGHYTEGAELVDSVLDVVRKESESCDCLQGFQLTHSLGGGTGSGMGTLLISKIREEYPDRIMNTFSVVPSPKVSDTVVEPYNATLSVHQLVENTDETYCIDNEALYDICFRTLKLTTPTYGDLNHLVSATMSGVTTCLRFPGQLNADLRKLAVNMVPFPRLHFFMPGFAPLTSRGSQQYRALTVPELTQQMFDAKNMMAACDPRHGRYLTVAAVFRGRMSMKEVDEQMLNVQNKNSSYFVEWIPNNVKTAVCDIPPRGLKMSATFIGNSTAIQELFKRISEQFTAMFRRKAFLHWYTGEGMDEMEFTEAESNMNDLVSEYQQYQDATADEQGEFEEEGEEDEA

[25] = system: K562; experiment: SRB antiproliferative assay; format: cell-based; conditions: Homo sapiens, K562, 24 h, read-out: IC50 (SRB)
[26] = system: FaDu; experiment: MTT antiproliferative assay; format: cell-based; conditions: Homo sapiens, 24 h, read-out: IC50 (MTT)
[27] = system: A549; experiment: MTT antiproliferative assay; format: cell-based; conditions: Homo sapiens, A549, 24 h, read-out: IC50 (MTT)
[28] = system: A549; experiment: NRU antiproliferative assay; format: cell-based; conditions: Homo sapiens, A549, 24 h, read-out: IC50 (NRU)
[29] = system: A549; experiment: SRB antiproliferative assay; format: cell-based; conditions: Homo sapiens, A549, 24 h, read-out: IC50 (SRB)
[30] = system: LOX-5 mRNA; experiment: Real-time qPCR expression analysis; format: cell-based, human; conditions: GAPDH internal control
[31] = MDA-MB-231, with respect to control

O=c1[nH]cc(F)c(=O)[nH]1 [5-fluorouracil, reference compound]
reduction of EAC tumor formation (tumor growth inhibition) [1]: 98.39%

NCCC[C@](N)(C(=O)O)C(F)F [DFMO, α-difluoromethylornithine]
IC50 [2]: 7.54 ± 5.8 µM | ODC mRNA expression level ([3]; A431, with respect to control): 5.42 fold change | ODC mRNA expression level ([3]; A549, with respect to control): 4.24 fold change | ODC mRNA expression level ([3]; FaDu, with respect to control): 2.57 fold change | ODC mRNA expression level ([3]; K562, with respect to control): 4.07 fold change | ODC mRNA expression level [3, 31]: 3.67 fold change | ODC mRNA expression level ([3]; PC-3, with respect to control): 6.55 fold change

COc1cccc2c1C(=O)c1c(O)c3c(c(O)c1C2=O)C[C@@](O)(C(=O)CO)C[C@@H]3O[C@H]1C[C@H](N)[C@H](O)[C@H](C)O1 [Doxorubicin, reference compound]
IC50 [4]: 1.6 ± 0.09 µM | IC50 [5]: 1.51 ± 0.86 µM | IC50 [6]: 1.15 ± 0.37 µM | IC50 [7]: 1.2 ± 0.36 µM | IC50 [8]: 3 ± 1.16 µM | IC50 [9]: 1.55 ± 0.95 µM | total mean of DCF positive cells [10]: 370 ± 14.14 | IC50 [11]: 1.21 ± 0.03 µM | IC50 [12]: 3.64 ± 1.8 µM | total of FITC mean (Rh123) [13]: 2735 ± 5.65 | IC50 [14]: 2.24 ± 1.56 µM

CN(Cc1cnc2nc(N)nc(N)c2n1)c1ccc(C(=O)N[C@@H](CCC(=O)O)C(=O)O)cc1 [MTX, Methotrexate]
DHFR mRNA expression level ([15]; A431, with respect to control): 2.92 fold change | DHFR mRNA expression level ([15]; A549, with respect to control): 2.20 fold change | DHFR mRNA expression level ([15]; FaDu, with respect to control): 2.82 fold change | DHFR mRNA expression level ([15]; K562, with respect to control): 2.20 fold change | DHFR mRNA expression level [15, 31]: 2.59 fold change | DHFR mRNA expression level ([15]; PC-3, with respect to control): 2.0 fold change

CC(=O)N[C@@H](CS)C(=O)O [NAC, N-acetyl cysteine]
IC50 [16]: 5.92 ± 0.7 µM | IC50 ([17]; read-out: IC50 HYAL, A431): 8.2 ± 1.42 µM | IC50 ([17]; read-out: IC50 HYAL, A549): 13.7 ± 4.37 µM | IC50 ([17]; read-out: IC50 HYAL, FaDu): 7.44 ± 0.67 µM | IC50 ([17]; read-out: IC50 HYAL, K562): 7.56 ± 0.59 µM | IC50 ([17]; read-out: IC50 HYAL, MDA-MB-231): 14.6 ± 3.07 µM | IC50 ([17]; read-out: IC50 HYAL, PC-3): 9.44 ± 3.13 µM | HYAL mRNA expression level ([18]; A431, with respect to control): 4.50 fold change | HYAL mRNA expression level ([18]; A549, with respect to control): 4.09 fold change | HYAL mRNA expression level ([18]; FaDu, with respect to control): 6.66 fold change | HYAL mRNA expression level ([18]; K562, with respect to control): 8.98 fold change | HYAL mRNA expression level [18, 31]: 6.87 fold change | HYAL mRNA expression level ([18]; PC-3, with respect to control): 5.64 fold change

CC(C)CC(=O)N[C@H](C(=O)N[C@H](C(=O)N[C@@H](CC(C)C)[C@@H](O)CC(=O)N[C@@H](C)C(=O)N[C@@H](CC(C)C)[C@@H](O)CC(=O)O)C(C)C)C(C)C [PEP A, pepstatin A, reference compound] (Isovaleryl-VV[Sta]A[Sta]-OH)
CAT D mRNA expression level ([19]; A431, with respect to control): 1.61 fold change | CAT D mRNA expression level ([19]; A549, with respect to control): 2.77 fold change | CAT D mRNA expression level ([19]; FaDu, with respect to control): 2.22 fold change | CAT D mRNA expression level ([19]; K562, with respect to control): 3.12 fold change | CAT D mRNA expression level [19, 31]: 1.81 fold change | CAT D mRNA expression level ([19]; PC-3, with respect to control): 1.66 fold change

COc1cc([C@@H]2c3cc4c(cc3[C@H](O)[C@H]3COC(=O)[C@H]23)OCO4)cc(OC)c1OC [Podophyllotoxin]
IC50 [20]: 46.4 ± 4.27 µM | IC50 [21]: 34.1 ± 1.79 µM | IC50 [22]: 32.3 ± 3.11 µM | IC50 [23]: 25.3 ± 0.28 µM | effect on tubulin polymerization [24]: inhibit the polymerization of α and β tubulin | IC50 [25]: 50.26 ± 0.45 µM | IC50 [26]: 16.2 ± 1.04 µM

CC(=O)O[C@H]1C(=O)[C@@]2(C)[C@H]([C@H](OC(=O)c3ccccc3)[C@]3(O)C[C@H](OC(=O)[C@H](O)[C@@H](NC(=O)c4ccccc4)c4ccccc4)C(C)=C1C3(C)C)[C@]1(OC(C)=O)CO[C@@H]1C[C@@H]2O [Taxol, paclitaxel]
IC50 [27]: 2.1 ± 0.81 µM | IC50 [28]: 1.18 ± 0.13 µM | effect on tubulin polymerization [24]: stabilizes the tubulin polymerization | IC50 [29]: 1.15 ± 0.16 µM

CC(c1cc2ccccc2s1)N(O)C(N)=O (stereo not drawn) [Zileuton]
LOX-5 mRNA expression level ([30]; A431, with respect to control): 3.10 fold change | LOX-5 mRNA expression level ([30]; FaDu, with respect to control): 2.96 fold change | LOX-5 mRNA expression level ([30]; K562, with respect to control): 3.01 fold change | LOX-5 mRNA expression level [30, 31]: 3.09 fold change | LOX-5 mRNA expression level ([30]; PC-3, with respect to control): 2.22 fold change
